The record followed here is patent US8007996B2, “Methods to identify protein arginine deiminase 4 inhibitors” (University of South Carolina, priority 2007, dated 2011).

In test [1] the target is T1, PAD4 (Homo sapiens, UniProt Q9UM07).
T1 construct: made in house
Description: Standard PAD4 assay (citrulline formation from BAEE), IC50 studies. In kind it is biochemical. The source says:
Reactions were quenched by flash freezing in liquid N2. The amount of Cit produced was then quantified according to methods known in the art. […] Inhibition Studies.

Test [2] concerns the target T1, PAD4. Description: ABPP-based inhibitor screen: competition with RFA for labelling of PAD4, gel fluorescence. In kind it is binding. Conditions: compound 2.5 mM, RFA 10 μM, PAD4 2 μM, 30 min at 37° C. The protocol: Very generally, potential inhibitor compounds are incubated individually with PAD4 in the presence of RFA for 30 min at 37° C.; at which point the reactions are quenched with SDS-PAGE loading dye and the mixtures are run on an SDS-PAGE gel. The amount of fluorescent PAD4 can then be quantified using a molecular imaging system. PAD4 inhibitors are readily identified by a decrease in fluorescence intensity.
RFA (10 μM final) and a particular compound from the library (2.5 mM final) were pre-incubated in Screening Buffer (500 μM TCEP, 10 mM CaCl2, 100 mM HEPES 7.6, 50 mM NaCl) for 10 min at 37° C. PAD4 (2 μM final) was then added to this mixture and incubated for 30 min at 37° C. The reaction was quenched with 6×SDS-PAGE Dye, incubated at 95° C. for 10 min, and then loaded onto a 12% SDS-PAGE gel. After electrophoresis, the gel was placed in destaining buffer (10% glacial acetic acid, 45% methanol, 45% ddH2O) until the fluorescence was measured using a fluorescence based molecular imaging station (Kodak Image Station 2000MM; excitation at 535 nm, emission at 600 nm). The protein gel was then stained and destained to ensure equal protein loading. A sample without a potential inhibitor was used as a control.

Test [3] concerns the target T1, PAD4. Description: Inhibition studies: kinetic analysis of PAD4 activity versus BAEE concentration. In kind it is biochemical. Conditions: for kinetic mechanism of PAD4 inhibition: Lineweaver-Burk plots; for Ki: BAEE 0-20 mM, 0.2 μM PAD4. The procedure:
PAD4 activity was measured as a function of substrate concentration in the absence and presence of increasing concentrations of each inhibitor.
Briefly, the compounds were incubated in Reaction Buffer containing various concentrations of BAEE (0-20 mM) for 10 minutes at 37° C. PAD4 (0.2 μM) was then added to initiate the reaction and allowed to proceed for 6 additional minutes. Reactions were then quenched by flash freezing in liquid N2 and the amount of Cit produced was quantified.
[formula] using GraFit version 5.0.11.

Test [4] addresses T1, PAD4. The description is as above. To be noted: product formation linear with respect to time. In kind it is biochemical.
[5] abbreviates: 1 mM BAEE, 0.2 μM PAD4, 15 min pre-incubation at 37° C.

Entries after “also recorded” stand apart in the source; their conditions may differ. Where two headings read alike, the source gives them in different places.

T1 sequence (Q9UM07 whole entry): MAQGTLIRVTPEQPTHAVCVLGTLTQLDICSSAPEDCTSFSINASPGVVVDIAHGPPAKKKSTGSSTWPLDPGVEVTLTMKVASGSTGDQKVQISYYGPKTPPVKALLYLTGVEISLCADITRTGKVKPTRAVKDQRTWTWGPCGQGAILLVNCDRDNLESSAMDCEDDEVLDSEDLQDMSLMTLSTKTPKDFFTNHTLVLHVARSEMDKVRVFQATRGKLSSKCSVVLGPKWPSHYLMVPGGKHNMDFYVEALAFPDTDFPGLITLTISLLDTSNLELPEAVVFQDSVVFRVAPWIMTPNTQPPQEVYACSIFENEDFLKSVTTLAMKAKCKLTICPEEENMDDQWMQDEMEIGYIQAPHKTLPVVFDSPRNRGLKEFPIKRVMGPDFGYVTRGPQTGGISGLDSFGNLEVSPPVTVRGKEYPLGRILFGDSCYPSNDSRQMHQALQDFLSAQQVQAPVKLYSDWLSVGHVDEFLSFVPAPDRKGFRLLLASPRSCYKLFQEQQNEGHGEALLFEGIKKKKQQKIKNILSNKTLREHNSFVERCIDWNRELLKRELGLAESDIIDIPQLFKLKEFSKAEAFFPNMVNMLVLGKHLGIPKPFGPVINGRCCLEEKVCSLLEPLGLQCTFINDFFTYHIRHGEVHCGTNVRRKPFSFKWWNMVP

For `Nc1ccc(O)c(C(=O)O)c1` [5-Amino-salicylic Acid], at PAD4 [1] (setting [5]), the half-inhibitory concentration (IC50) was more than 10000 µM. The “decrease in fluorescence intensity of PAD4” value (from here on “decrease”) at PAD4 [2] is “little to no decrease”.

For `Cn1cnc([N+](=O)[O-])c1Sc1ncnc2nc[nH]c12` [Azathioprine], the IC50 at PAD4 [1] (setting [5]) was more than 7500 µM.

`CN(C)[C@H]1C(O)=C(C(N)=O)C(=O)C2(O)C(O)=C3C(=O)c4c(O)ccc(Cl)c4C(C)(O)C3CC12` (stereo partly drawn) [Chlortetracycline]: the “kinetic mechanism of PAD4 inhibition” value on PAD4 [3] is “mixed inhibition; also recorded: mixed inhibitors”. In addition, the “reversibility of PAD4 inhibition” value at PAD4 [4] is “reversible”.

On to `CCCC1CC(C(=O)NC(C(C)Cl)C2OC(SC)C(O)C(O)C2O)N(C)C1` (stereo not drawn) [Clindamycin], for which, on PAD4 [2], the “decrease” value was “Intermediate effects”.

On PAD4 [1] (setting [5]), `CN(Cc1cnc2nc(N)nc(N)c2n1)c1ccc(C(=O)N[C@@H](CCC(=O)O)C(=O)O)cc1` [Methotrexate] yielded a half-maximal inhibitory concentration (IC50) of more than 10000 µM. On PAD4 [2], the “decrease” value was “Intermediate effects”.

As to `CN(C)c1ccc(O)c2c1C[C@H]1C[C@H]3[C@H](N(C)C)C(O)=C(C(N)=O)C(=O)[C@@]3(O)C(O)=C1C2=O` [Minocycline], the IC50 on PAD4 [1] (setting [5]) and at PAD4 [1] (standard assay) was 620 µM each time. Besides, the Ki on PAD4 [3] (read-out: Kii) came out at 630 ± 150 µM; on PAD4 [3] (read-out: Kis), 180 ± 60 µM. Moreover, the “kinetic mechanism of PAD4 inhibition” value on PAD4 [3] was “mixed type inhibitor; also recorded: mixed inhibitors”. Moreover, the “decrease” value at PAD4 [2] was “strong decrease”. In addition, the “reversibility of PAD4 inhibition” value at PAD4 [4] is reported as “reversible”.

`[H]/N=C(/N)N[C@H]1[C@H](O)[C@@H](O)[C@H](O[C@@H]2O[C@@H](C)[C@](O)(C=O)[C@H]2O[C@@H]2O[C@@H](CO)[C@H](O)[C@@H](O)[C@@H]2NC)[C@@H](N/C(N)=N\[H])[C@@H]1O` [Streptomycin]: the “deimination of the compound by PAD4 (substrate)” value on PAD4 [1] is listed as “not deiminated”. For the same compound, the “kinetic mechanism of PAD4 inhibition” value at PAD4 [3] is given as “competitive inhibitor”. Further, the “decrease” value at PAD4 [2] is given as “strong decrease”. For the same compound, the “reversibility of PAD4 inhibition” value at PAD4 [4] is on record as “reversible”.

Compound `Nc1ccc(S(=O)(=O)Nc2ccccn2)cc1` [Sulfapyridine] registered an IC50 on PAD4 [1] (setting [5]) of more than 10000 µM. Besides, the “decrease” value on PAD4 [2] was “little to no decrease”.

`CN(C)[C@H]1C(O)=C(C(N)=O)C(=O)C2(O)C(O)=C3C(=O)c4c(O)cccc4C(C)(O)C3CC12` (stereo partly drawn) [Tetracycline] had an IC50 against PAD4 [1] (setting [5]) of 100 ± 10 µM.

In the case of `COc1cc(Cc2cnc(N)nc2N)cc(OC)c1OC` [Trimethoprim], at PAD4 [1] (setting [5]), the IC50 amounted to 7500 ± 200 µM. For the same compound, the “decrease” value on PAD4 [2] is given as “little to no decrease”.

Regarding Azithromycin, the half-inhibitory concentration (IC50) on PAD4 [1] (setting [5]) was more than 10000 µM. For the same compound, the “decrease” value on PAD4 [2] is on record as “little to no decrease”.

In turn, Leflunomide gave an IC50 against PAD4 [1] (setting [5]) of 2400 ± 800 µM. The “decrease” value at PAD4 [2] is given as “Intermediate effects”.

For the compound Sulfamethox-azole, the IC50 on PAD4 [1] (setting [5]) is more than 10000 µM. In addition, the “decrease” value at PAD4 [2] is “little to no decrease”.

The IC50 is the concentration that gives 50% inhibition. A low value points to inhibition by little substance.
